Test results from patent publication US11571455B2, “Methods and compositions for treating alcoholic liver disease” (VANDERBILT UNIVERSITY, priority 2013, dated 2023).
Bridge positions count the residues as written; N and C are the ends. Peptide text beside a SMILES is read from it.

Experiments:
[1] = tested on: Staphylococcal enterotoxin B-induced systemic inflammation; settings: mouse, in vivo
[2] = target: T1, importin α5/karyopherin α1 (/KPNA1/SRP1) (Homo sapiens, UniProt P52294); experiment: Binding to the nuclear import adaptor
T1 construct: SRP1/importin alpha 5 (karyopherin alpha1)/importin beta 1 heterodimer expressed in Jurkat T cells; endogenous in cells; host or cells: Jurkat T cells
Description: Inflammatory liver injury mediated by macrophages (Kupffer cells) or T cells depends on the nuclear import of SRTFs. SRTFs regulate the genome response to proinflammatory and proapoptotic cues. The mechanism of action of cell-penetrating peptides SN50 and its cyclized analog cSN50 that inhibit the nuclear import of SRTFs is shown herein. SN50 binds to a nuclear import adaptor protein termed importin α5/karyopherin α1 (/KPNA1/SRP1) and inhibits its function as a cytoplasmic/nuclear shuttle for SRTFs. […] However, prior to the present disclosure, it was not known how EtOH influences the importin α5/karyopherin α1 (/KPNA1/SRP1)—mediated signaling to the nucleus and genome response in hepatocytes induced by LPS or Con A. Also identified was another putative nuclear import adapter, termed SARM, which appears to participate in LPS-induced liver injury. […] Example 2: Nuclear Import of Stress-Responsive Transcription Factors (SRTFs) Is Required for Inflammatory and Apoptotic Gene Expression.
It is well-recognized that signaling to the nucleus plays a key role in the response of T lymphocytes to immune and inflammatory stimuli. […]

[3] = tested on: nuclear import of NF-κB, AP-1, NFAT, and STAT1 in Jurkat T cells; format: cell-based, human

T1 sequence (P52294 whole entry): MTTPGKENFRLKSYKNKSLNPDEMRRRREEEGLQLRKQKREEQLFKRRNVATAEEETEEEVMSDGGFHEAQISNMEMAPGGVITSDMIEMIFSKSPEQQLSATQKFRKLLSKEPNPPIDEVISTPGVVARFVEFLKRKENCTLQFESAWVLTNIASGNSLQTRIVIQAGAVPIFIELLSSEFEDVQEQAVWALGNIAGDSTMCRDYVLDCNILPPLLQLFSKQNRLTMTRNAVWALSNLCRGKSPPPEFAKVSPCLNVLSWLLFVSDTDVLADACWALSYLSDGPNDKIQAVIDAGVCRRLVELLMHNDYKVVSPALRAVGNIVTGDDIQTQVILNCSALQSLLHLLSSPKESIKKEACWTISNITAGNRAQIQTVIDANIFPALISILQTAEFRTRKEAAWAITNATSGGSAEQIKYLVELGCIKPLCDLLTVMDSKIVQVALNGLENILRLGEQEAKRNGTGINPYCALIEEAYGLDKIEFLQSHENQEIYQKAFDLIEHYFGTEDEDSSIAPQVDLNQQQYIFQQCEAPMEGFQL
T1 sequence (Q14974 whole entry partner): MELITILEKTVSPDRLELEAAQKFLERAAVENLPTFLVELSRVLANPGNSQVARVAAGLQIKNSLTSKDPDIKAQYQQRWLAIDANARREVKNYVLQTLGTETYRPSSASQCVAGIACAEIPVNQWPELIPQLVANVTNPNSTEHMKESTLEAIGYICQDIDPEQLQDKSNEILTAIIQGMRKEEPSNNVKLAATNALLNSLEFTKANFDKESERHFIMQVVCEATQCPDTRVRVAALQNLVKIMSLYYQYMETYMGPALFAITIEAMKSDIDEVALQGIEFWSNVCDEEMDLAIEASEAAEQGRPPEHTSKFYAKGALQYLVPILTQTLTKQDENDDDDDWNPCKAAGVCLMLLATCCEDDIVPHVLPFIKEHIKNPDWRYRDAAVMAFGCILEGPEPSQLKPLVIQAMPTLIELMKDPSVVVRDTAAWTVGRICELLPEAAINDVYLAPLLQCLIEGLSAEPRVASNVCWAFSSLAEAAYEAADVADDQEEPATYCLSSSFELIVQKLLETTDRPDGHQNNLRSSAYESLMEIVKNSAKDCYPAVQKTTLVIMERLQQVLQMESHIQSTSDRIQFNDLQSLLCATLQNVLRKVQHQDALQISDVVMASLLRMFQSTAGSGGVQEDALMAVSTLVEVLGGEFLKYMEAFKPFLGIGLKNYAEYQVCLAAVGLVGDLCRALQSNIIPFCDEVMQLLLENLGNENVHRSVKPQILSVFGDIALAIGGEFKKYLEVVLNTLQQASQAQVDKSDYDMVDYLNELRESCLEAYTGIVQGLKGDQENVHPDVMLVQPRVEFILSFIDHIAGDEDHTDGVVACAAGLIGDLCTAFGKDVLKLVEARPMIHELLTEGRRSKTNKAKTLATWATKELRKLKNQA

CSCC[C@@H]1NC(=O)[C@H](CC(C)C)NC(=O)[C@H](CCCCN)NC(=O)[C@H](CCC(N)=O)NC(=O)[C@H](CCCNC(=N)N)NC(=O)[C@H](CCCCN)NC(=O)[C@H](CCCNC(=N)N)NC(=O)[C@H](CCC(N)=O)NC(=O)[C@H](C(C)C)NC(=O)[C@H](Cc2ccc(O)cc2)NC(=O)[C@@H](NC(=O)[C@@H]2CCCN2C(=O)[C@H](C)NC(=O)[C@H](CC(C)C)NC(=O)[C@H](CC(C)C)NC(=O)[C@H](C)NC(=O)[C@H](CC(C)C)NC(=O)[C@H](CC(C)C)NC(=O)[C@@H](NC(=O)[C@H](C)NC(=O)[C@@H]2CCCN2C(=O)[C@H](CC(C)C)NC(=O)[C@H](CC(C)C)NC(=O)[C@H](C)NC(=O)[C@@H](NC(=O)[C@H](C)NC(=O)[C@H](C)N)C(C)C)C(C)C)CSSC[C@@H](C(=O)O)NC(=O)[C@@H]2CCCN2C1=O [cSN50] (H-AAVALLPAVLLALLAPCYVQRKRQKLMPC-OH; disulfide 17-29; N-terminus and C-terminus assumed)
undesirable side effects [1]: does not seem to cause undesirable side effects

AAVALLPAVLLALLAPVQRKRQKLMP [SN50, SSHR of K-FGF linked to NLS of NF-κB1 p50]
binding to importin α5/karyopherin α1 [2]: binds | nuclear import of SRTFs [3]: prevents nuclear import of four SRTFs
